Assay: solvent given as SMILES

Work on `N#Cc1c(-n2c3ccccc3c3ccccc32)c(F)c(-n2c3ccccc3c3ccccc32)c(-n2c3ccccc3c3ccccc32)c1-n1c2ccccc2c2ccccc21` yielded an emission maximum (in Cc1ccccc1) of 453 nm and an emission maximum (in c1ccc([Si](c2ccccc2)(c2ccc(-n3c4ccccc4c4ccccc43)cc2)c2ccc(-n3c4ccccc4c4ccccc43)cc2)cc1) of 470 nm.

`O=[N+]([O-])c1ccc(C#Cc2ccc3ccc(C#Cc4ccc([N+](=O)[O-])cc4)cc3c2)cc1` gave an emission maximum (in ClCCl) of 527 nm.

Work on `Fc1ccccc1-c1c2cc(Cl)ccc2nc2cc3ccccc3cc12` yielded an emission maximum (in ClCCl) of 526 nm.

Compound `COc1ccc(-c2cc3c(ccc4sc5ccc6sccc6c5c43)s2)cc1` has an emission maximum (in ClCCl) of 409 nm.

`CCOC(=O)COc1ccc(/C=C/C2=C3C(C)=CC(/C=C/c4ccc(OCC(=O)OCC)cc4)=[N+]3[B-](F)(F)n3c2c2ccccc2c3-c2[nH]c(C)cc2C)cc1` gave an emission maximum (in ClCCl) of 733 nm.

Compound `CC(C)c1cc(C(C)C)c(B2c3cc(N4c5ccccc5Oc5ccccc54)ccc3N(c3ccccc3)c3ccc(N4c5ccccc5Oc5ccccc54)cc32)c(C(C)C)c1` has an emission maximum (in C1CCOC1) of 554.08 nm, an emission maximum (in CCOC(C)=O) of 546.26 nm and an emission maximum (in Cc1ccccc1) of 510.2 nm. The emission maximum (in ClCCl) was 546.26 nm and the emission maximum (in c1cc(-c2cccc(-n3c4ccccc4c4ccccc43)c2)cc(-n2c3ccccc3c3ccccc32)c1) was 512 nm.

Compound `C[Si](C)(C)c1cccc2ccccc12` has an emission maximum (in C1CCCCC1) of 328 nm.

With `N#Cc1nn(-c2ccccc2C(F)(F)F)nc1N1CCCC1` the emission maximum (in CC#N) was 433 nm.

Work on `O=C1CC(=O)Nc2cc(Cl)ccc2N1` yielded an emission maximum (in CS(C)=O) of 336 nm.

For `CN(C)CCNCc1c2ccccc2cc2ccccc12`, the emission maximum (in C1CCCCC1) was 388 nm, the emission maximum (in C1CCOC1) was 413 nm and the emission maximum (in CC#N) was 389 nm. It also gave an emission maximum (in CC(C)=O) of 387 nm, an emission maximum (in CCO) of 410 nm and an emission maximum (in CN(C)C=O) of 414 nm. The emission maximum (in CO) was 388 nm and the emission maximum (in ClC(Cl)Cl) was 417 nm.

`NCc1ccc2ccc3cccc4ccc1c2c34` gave an emission maximum (in C1CCCCC1) of 375 nm, an emission maximum (in CC#N) of 375 nm and an emission maximum (in CO) of 375 nm. For the same compound, the emission maximum (in ClC(Cl)Cl) was 376 nm.

With `CC(C)(C)NC(=O)c1cccc2ccc3c4cc(Cl)ccc4c4ccc(Cl)cc4c3c12` the emission maximum (in ClCCl) was 407 nm.

With `F[B-]1(F)n2c(c(-c3ccccc3)c(-c3ccccc3)c2-c2ccccc2)C=C2C(c3ccccc3)=C(c3ccccc3)C(c3ccccc3)=[N+]21` the emission maximum (in C1CCOC1) was 608 nm.

In the case of `COC(=O)c1[nH]c(-c2ccc([N+](=O)[O-])cc2)c2nnc3ccc(OC)cc3c12`, the emission maximum (in ClCCl) is reported as 549 nm.

For `C=CCNc1ccc2c(ccc3oc4cc(=[N+](C)C)ccc-4nc32)c1`, the emission maximum (in CC#N) was 654 nm, the emission maximum (in CCO) was 650 nm and the emission maximum (in ClCCl) was 645 nm. The emission maximum (in O) was 660 nm.

In the case of `CCCCCCCCC1(CCCCCCCC)c2cc3c(cc2-c2sc(-c4ccc(/C=C5\SC(SCC)=NC5=O)c5nsnc45)cc21)C(CCCCCCCC)(CCCCCCCC)c1cc(-c2ccc(/C=C4\SC(SCC)=NC4=O)c4nsnc24)sc1-3`, the emission maximum (in ClC(Cl)Cl) is reported as 718 nm.

`N#Cc1cnc(-c2c3ccccc3cc3ccccc23)nc1` showed an emission maximum (in CCO) of 510 nm and an emission maximum (in ClCCl) of 492 nm.

With `COc1ccc(C2=C3C(/C=C/c4cc(OC)c(OC)c(OC)c4)=C(C=O)C(C)=[N+]3[B-](F)(F)n3c(C)c(C=O)c(C=Cc4cc(OC)c(OC)c(OC)c4)c32)cc1` the emission maximum (in ClCCl) was 673 nm.

In the case of `COC(=O)c1cc(=O)n(C)c2cc(-c3ccc(N(C)C)cc3)sc12`, the emission maximum (in CC#N) is reported as 599 nm and the emission maximum (in ClCCl) is reported as 554 nm.

For `c1ccc(-n2c(-c3ccc(-c4ccc5c(c4)C4(c6ccccc6-c6ccccc64)c4cc(-c6ccc(-c7nc8ccccc8n7-c7ccccc7)cc6)c6ccccc6c4-5)cc3)nc3ccccc32)cc1`, the emission maximum (in ClC(Cl)Cl) was 440 nm.

`Oc1ccccc1-c1nc2ccccc2s1` gave an emission maximum (in CCO) of 373 nm, an emission maximum (in ClCCl) of 396 nm and an emission maximum (in O) of 463 nm.

With `CN(C)c1ccc2cc3ccc(N(C)C)cc3nc2c1` the emission maximum (in O) was 530 nm.

With `CC1=[N+]2C(=Cc3c4c(cn3[B-]2(F)F)-c2nc-4c(-c3ccccc3)c3ccc([nH]3)c(-c3ccccc3)c3nc(c(-c4ccccc4)c4ccc([nH]4)c2-c2ccccc2)C=C3)C(C)C1` (stereo unspecified) the emission maximum (in ClCCl) was 693 nm.

In the case of `CCCCCc1c(C(=O)c2ccc3c4c(cccc24)-c2cccc4c2C3CC=C4)c2ccc3cccc4c5cccc6ccc1c(c65)c2c34` (stereo unspecified), the emission maximum (in ClCCl) is reported as 525 nm.
